Laboratory results published in ChEMBL document CHEMBL4145548, “Pyrimidine-chloroquinoline hybrids: Synthesis and antiplasmodial activity” (Eur J Med Chem, 2018).
pIC50: −log10 of the molar value. ≈ marks a conversion by molar mass, not a printed value. Calls of active or inactive are those of the source. No cut-off for these calls is given here.

Experiments:
in vitro = conditions: monkey, Vero cells
Description: Selectivity index, ratio of IC50 for African green monkey Vero cells to IC50 for chloroquine-sensitive Plasmodium falciparum NF54

[1] = n-octanol-phosphate buffer distribution coefficient, log D of the compound at pH 7.4 after 1 hr by HPLC method; type: physicochemical
Plasmodium falciparum [2] = assay: microbe, parasite or virus in culture; conditions: Dd2
Description: Antiplasmodial activity against chloroquine-resistant Plasmodium falciparum Dd2 by LDH release assay

[3] = Solubility in n-octanol at pH 7.4 after 24 hrs by HPLC analysis; type: physicochemical
Plasmodium falciparum [4] = assay: microbe, parasite or virus in culture; conditions: NF54
Description: Antiplasmodial activity against chloroquine-sensitive Plasmodium falciparum NF54 by LDH release assay

Vero = assay: Cytotoxicity against African green monkey Vero cells assessed as reduction in cell viability by MTT assay; type: cell-based; conditions: Chlorocebus sabaeus
[5] = Aqueous solubility in pH 7.4 PBS buffer after 24 hrs by HPLC analysis; type: physicochemical
mu-oxodimeric heme [6] = assay: Binding affinity to mu-oxodimeric heme assessed as decrease in soret band intensity up to 26.7 uM at pH 5.8 by titration-based UV-vis spectrophotometric analysis
Calf thymus DNA [7] = assay: Binding affinity to calf thymus DNA at 66 uM by UV-visible absorption spectral analysis; type: nucleic-acid assay; conditions: Bos taurus
Heme [8] = assay: Binding affinity to monomeric heme at 5 umol by HRMS mass spectrum analysis
unidentified = assay: Inhibition of acetate buffer-initiated beta-hematin polymerization at 1.2 equiv measured after 1 hr by FT-IR spectroscopic method
Heme [9] = assay: Binding affinity to monomeric heme at pH 7.4 by titration-based UV-vis spectrophotometric analysis
DNA [10] = assay: Binding affinity to Escherichia coli pUC18 DNA at 17.1 uM by fluorimetry analysis; type: nucleic-acid assay
Heme [11] = assay: Binding affinity to monomeric heme by 1H NMR method
Heme [12] = assay: Binding affinity to monomeric heme at pH 5.6 by titration-based UV-vis spectrophotometric analysis
Heme [13] = assay: Binding affinity to monomeric heme assessed as decrease in soret band intensity up to 40 uM at pH 5.6 to 7.4 by titration-based UV-vis spectrophotometric analysis
DNA [14] = assay: Binding affinity to Escherichia coli pUC18 DNA by UV-visible absorption spectral analysis; type: nucleic-acid assay
Calf thymus DNA [15] = assay: Binding affinity to calf thymus DNA assessed as association constant by Benesi-Hildebrand equation analysis; type: nucleic-acid assay; conditions: Bos taurus
Calf thymus DNA [16] = assay: Binding affinity to calf thymus DNA at 17.1 uM by fluorimetry analysis; type: nucleic-acid assay; conditions: Bos taurus
mu-oxodimeric heme [17] = assay: Binding affinity to mu-oxodimeric heme at pH 5.8 by titration-based UV-vis spectrophotometric analysis
Calf thymus DNA [18] = assay: Binding affinity to calf thymus DNA assessed as change in melting temperature at DNA to compound ratio of 5:1; type: nucleic-acid assay; conditions: Bos taurus
Calf thymus DNA [19] = assay: Binding affinity to calf thymus DNA by UV-visible absorption spectral analysis; type: nucleic-acid assay; conditions: Bos taurus
Plasmodium falciparum [20] = assay: Potency index, ratio of chloroquine IC50 to compound IC50 for antiplasmodial activity against chloroquine-resistant Plasmodium falciparum Dd2; type: functional

Structure (SMILES) | logD at 1 h [1] | solubility at 24 h [3] | pIC50 (Plasmodium falciparum [4]) | pIC50 (Vero) | solubility at 24 h [5] | Ratio IC50 (Plasmodium falciparum [20]) | also measured
COC(=O)c1c(C)nc(OCc2cn(CCCNc3ccnc4cc(Cl)ccc34)nn2)nc1-c1ccccc1 | 0.78 | 34.2 µM (≈ 18.6 µg/mL) | 6.00 | 3.81 | 5.64 µM (≈ 3.07 µg/mL) |  | selectivity ratio (in vitro): 154; pIC50 (Plasmodium falciparum [2]): 5.78
Cc1nc(OCc2cn(CCCNc3ccnc4cc(Cl)ccc34)nn2)nc(-c2ccc([N+](=O)[O-])cc2)c1C(=O)OC(C)C | 1.43 | 14.9 µM (≈ 9.18 µg/mL) | 7.32 | 4.82 | 0.55 µM (≈ 0.339 µg/mL) |  | Activity (mu-oxodimeric heme [6]): Active; selectivity ratio (in vitro): 318; Activity (Calf thymus DNA [7]): Active; pIC50 (Plasmodium falciparum [2]): 5.34; Activity (Heme [8]): Active; inhibition (unidentified): Active; log K (Heme [9]): 4.68; Activity (DNA [10]): Active; Activity (Heme [11]): Active; log K (Heme [12]): 4.27; Activity (Heme [13]): Active; log K (DNA [14]): 3.92; log K (Calf thymus DNA [15]): 2.29; Activity (Calf thymus DNA [16]): Active; log K (mu-oxodimeric heme [17]): 5.43; ΔTm (Calf thymus DNA [18]): 2.5 °C; log K (Calf thymus DNA [19]): 3.74
CC[C@H]1CN2CCc3cc(OC)c(OC)cc3[C@@H]2C[C@@H]1C[C@H]1NCCc2cc(OC)c(OC)cc21 [EMETINE] |  |  |  | 6.75 |  |  | 
COC(=O)c1c(C)nc(OCc2cn(CCNc3ccnc4cc(Cl)ccc34)nn2)nc1-c1ccccc1 | 0.58 | 44.7 µM (≈ 23.7 µg/mL) | 4.98 |  | 11.3 µM (≈ 5.99 µg/mL) |  | 
CCOC(=O)c1c(C)nc(OCc2cn(CCCNc3ccnc4cc(Cl)ccc34)nn2)nc1-c1ccccc1 | 1.19 | 48.3 µM (≈ 27 µg/mL) | 6.05 | 3.82 | 3.11 µM (≈ 1.74 µg/mL) |  | selectivity ratio (in vitro): 172; pIC50 (Plasmodium falciparum [2]): 5.86
COC(=O)c1c(C)nc(OCc2cn(-c3ccnc4cc(Cl)ccc34)nn2)nc1-c1ccccc1 | 0.69 | 16.3 µM (≈ 7.96 µg/mL) | 4.80 |  | 3.31 µM (≈ 1.61 µg/mL) |  | 
Clc1ccc2c(NCCCCCCCCNc3ccnc(Cl)n3)ccnc2c1 |  |  |  |  |  | 3.2 | 
Clc1ccc2c(NCCNc3nccc(Cl)n3)ccnc2c1 |  |  |  |  |  | 3.2 | 
Clc1ccc2c(NCCCNc3nccc(N4CCCCC4)n3)ccnc2c1 |  |  |  |  |  | 3.2 | 
Clc1ccc2c(NCCCCCCCNc3nccc(Cl)n3)ccnc2c1 |  |  |  |  |  | 3.2 | 
Clc1ccc2c(NCCCCCCCCCCCCNc3nccc(Cl)n3)ccnc2c1 |  |  |  |  |  | 3.2 | 
Cc1nc(OCc2cn(CCNc3ccnc4cc(Cl)ccc34)nn2)nc(-c2ccccc2[N+](=O)[O-])c1C(=O)OC(C)C | 0.86 | 16.7 µM (≈ 10.1 µg/mL) | 6.28 | 3.84 | 2.3 µM (≈ 1.39 µg/mL) |  | selectivity ratio (in vitro): 274; pIC50 (Plasmodium falciparum [2]): 5.97
CCOC(=O)c1c(C)nc(OCc2cn(CCNc3ccnc4cc(Cl)ccc34)nn2)nc1C | 0.27 | 35.6 µM (≈ 17.2 µg/mL) | 5.60 | < 3.68 | 19.1 µM (≈ 9.21 µg/mL) |  | selectivity ratio (in vitro): > 83; pIC50 (Plasmodium falciparum [2]): 5.09
Clc1ccc2c(NCCCCNc3nccc(Cl)n3)ccnc2c1 |  |  |  |  |  | 3.2 | 
Clc1ccc2c(NCCCNc3ccnc(Cl)n3)ccnc2c1 |  |  |  |  |  | 3.2 | 
Cc1nc(OCc2cn(CCCNc3ccnc4cc(Cl)ccc34)nn2)nc(-c2ccccc2[N+](=O)[O-])c1C(=O)OC(C)C | 1.31 | 12.1 µM (≈ 7.49 µg/mL) | 6.22 | 4.63 | 0.58 µM (≈ 0.358 µg/mL) |  | selectivity ratio (in vitro): 38.9; pIC50 (Plasmodium falciparum [2]): 6.07
Clc1ccc2c(NCCCCCCCCCCNc3nccc(Cl)n3)ccnc2c1 |  |  |  |  |  | 3.2 | 
Clc1ccc2c(NCCCCCCCCNc3nccc(Cl)n3)ccnc2c1 |  |  |  |  |  | 3.2 | 
Cc1nc(OCc2cn(CCCNc3ccnc4cc(Cl)ccc34)nn2)nc(-c2ccccc2)c1C(=O)OC(C)C | 1.72 | 63.5 µM (≈ 36.3 µg/mL) | 6.48 | 4.54 | 1.21 µM (≈ 0.692 µg/mL) |  | selectivity ratio (in vitro): 86.4; pIC50 (Plasmodium falciparum [2]): 6.21

Structure (SMILES) | logD at 1 h [1] | solubility at 24 h [3] | pIC50 (Plasmodium falciparum [4]) | pIC50 (Vero) | solubility at 24 h [5] | Ratio IC50 (Plasmodium falciparum [20]) | also measured
Cc1nc(OCc2cn(-c3ccnc4cc(Cl)ccc34)nn2)nc(-c2ccccc2)c1C(=O)OC(C)C | 1.46 | 52.5 µM (≈ 27 µg/mL) | 4.85 |  | 1.78 µM (≈ 0.917 µg/mL) |  | 
CCOC(=O)c1c(C)nc(OCc2cn(CCCNc3ccnc4cc(Cl)ccc34)nn2)nc1C | 0.42 | 21.2 µM (≈ 10.5 µg/mL) | 6.15 | < 3.70 | 8.01 µM (≈ 3.97 µg/mL) |  | selectivity ratio (in vitro): > 287; pIC50 (Plasmodium falciparum [2]): 5.95
Clc1ccc2c(NCCCNc3nccc(N4CCCC4)n3)ccnc2c1 |  |  |  |  |  | 3.2 | 
Cc1nc(OCc2cn(CCNc3ccnc4cc(Cl)ccc34)nn2)nc(-c2ccccc2)c1C(=O)OC(C)C | 1.21 | 53.1 µM (≈ 29.6 µg/mL) | 6.19 | 3.83 | 3.21 µM (≈ 1.79 µg/mL) |  | selectivity ratio (in vitro): 232; pIC50 (Plasmodium falciparum [2]): 5.70
Clc1ccc2c(NCCCNc3ccnc(N4CCOCC4)n3)ccnc2c1 |  |  |  |  |  | 3.2 | 
CCOC(=O)c1c(C)nc(OCc2cn(-c3ccnc4cc(Cl)ccc34)nn2)nc1C | 0.39 | 17.8 µM (≈ 7.8 µg/mL) | 4.07 |  | 7.18 µM (≈ 3.15 µg/mL) |  | 
Cc1nc(OCc2cn(CCNc3ccnc4cc(Cl)ccc34)nn2)nc(-c2ccc([N+](=O)[O-])cc2)c1C(=O)OC(C)C | 0.88 | 54.4 µM (≈ 32.8 µg/mL) | 6.74 | 3.82 | 7.03 µM (≈ 4.24 µg/mL) |  | selectivity ratio (in vitro): 833; pIC50 (Plasmodium falciparum [2]): 6.00
C[C@H]1[C@H](OC(=O)CCC(=O)O)O[C@@H]2O[C@@]3(C)CC[C@H]4[C@H](C)CC[C@@H]1[C@@]24OO3 [ARTESUNATE] |  |  | > 5.28 |  |  |  | 
Clc1ccc2c(NCCCNc3nccc(N4CCOCC4)n3)ccnc2c1 |  |  |  |  |  | 3.2 | 
Cc1nc(OCc2cn(-c3ccnc4cc(Cl)ccc34)nn2)nc(-c2ccccc2[N+](=O)[O-])c1C(=O)OC(C)C | 1.1 | 37.4 µM (≈ 20.9 µg/mL) | 4.79 |  | 2.93 µM (≈ 1.64 µg/mL) |  | 
Cc1nccc(NCCNc2ccnc3cc(Cl)ccc23)n1 |  |  |  |  |  | 3.2 | 
Clc1ccnc(N2CCOCC2)n1 |  |  |  |  |  | 3.2 | 
Clc1ccc2c(NCCCOc3nccc(Cl)n3)ccnc2c1 |  |  |  |  |  | 3.2 | 
CCOC(=O)c1c(C)nc(OCc2cn(CCNc3ccnc4cc(Cl)ccc34)nn2)nc1-c1ccccc1 | 0.81 | 21.7 µM (≈ 11.8 µg/mL) | 5.83 | 3.83 | 3.3 µM (≈ 1.8 µg/mL) |  | selectivity ratio (in vitro): 100; pIC50 (Plasmodium falciparum [2]): 5.60
CCN(CC)CCCC(C)Nc1ccnc2cc(Cl)ccc12 (stereo not given) |  |  |  |  |  |  | ΔTm (Calf thymus DNA [18]): 4 °C
Clc1ccc2c(NCCCNc3nccc(N4CCNCC4)n3)ccnc2c1 |  |  |  |  |  | 3.2 | 
CCOC(=O)c1c(C)nc(OCc2cn(-c3ccnc4cc(Cl)ccc34)nn2)nc1-c1ccccc1 | 1.08 | 66.2 µM (≈ 33.2 µg/mL) | 4.91 |  | 5.47 µM (≈ 2.74 µg/mL) |  | 
Clc1ccc2c(NCCCNc3ccnc(N4CCCCC4)n3)ccnc2c1 |  |  |  |  |  | 3.2 | 
Cc1nc(OCc2cn(-c3ccnc4cc(Cl)ccc34)nn2)nc(-c2ccc([N+](=O)[O-])cc2)c1C(=O)OC(C)C | 1.12 | 60.5 µM (≈ 33.9 µg/mL) | 5.10 |  | 4.54 µM (≈ 2.54 µg/mL) |  | 
